Experimental data taken from article PMC10765413, “Correlating Conformational Equilibria with Catalysis in the Electron Bifurcating EtfABCX of Thermotoga maritima” (Biochemistry, 2023).
Read-outs that look alike come from different tables or passages of the source.

How the values were obtained:
EtfAB [1] = target: T1, EtfAB (Thermotoga maritima, UniProt Q9X1L6+Q9X1L7); assay: anaerobic SEC-SAXS with in-line UV-visible spectroscopy (flavin reduction, compaction); format: binding; conditions: 20 mM Tris-HCl pH 8.0, 200 mM NaCl, room temperature
T1 construct: gene TM_1530; recombinant EtfAB heterodimer from E. coli BL21(DE3) deltaiscR, 9xHis tag, 69 kDa expected, two FAD per heterodimer, purified anaerobically
T1 sequence (Q9X1L6 entry or part of it): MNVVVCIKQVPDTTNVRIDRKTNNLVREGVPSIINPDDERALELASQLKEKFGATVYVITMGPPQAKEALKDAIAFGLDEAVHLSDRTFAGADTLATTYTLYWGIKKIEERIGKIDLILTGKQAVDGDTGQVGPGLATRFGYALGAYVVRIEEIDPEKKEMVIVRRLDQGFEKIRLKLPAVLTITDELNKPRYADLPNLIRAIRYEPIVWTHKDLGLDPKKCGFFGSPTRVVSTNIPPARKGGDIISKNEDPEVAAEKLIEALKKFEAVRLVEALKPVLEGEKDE
T1 sequence (Q9X1L7 entry or part of it): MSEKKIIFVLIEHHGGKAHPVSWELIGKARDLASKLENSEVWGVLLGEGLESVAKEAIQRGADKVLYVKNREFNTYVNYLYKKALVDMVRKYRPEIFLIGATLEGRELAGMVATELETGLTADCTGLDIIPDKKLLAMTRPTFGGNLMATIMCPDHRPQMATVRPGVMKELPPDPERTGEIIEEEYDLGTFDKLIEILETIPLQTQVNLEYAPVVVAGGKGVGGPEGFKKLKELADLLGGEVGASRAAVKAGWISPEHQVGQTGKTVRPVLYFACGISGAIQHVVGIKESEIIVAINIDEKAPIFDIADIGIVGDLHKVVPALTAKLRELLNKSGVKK

EtfABCX [2] = target: T2, EtfABCX (Thermotoga maritima, UniProt Q9X1L6+Q9X1L7+Q9X1L8); assay: anaerobic SEC-MALS-SAXS with in-line UV-visible spectroscopy; format: binding; conditions: NAD+ in running buffer, 20 mM Tris-HCl pH 8.0, 200 mM NaCl, 0.01% DDM
T2 construct: gene TM_1530; operon in pET-21a(+), N-terminal 9xHis tag, E. coli BL21(DE3) deltaiscR, anaerobic purification; superdimer (ABCX)2, 257 kDa, three FAD per supermonomer; with Ferredoxin-like protein FixX (EtfX; two [4Fe-4S] clusters)
T2 sequence (Q9X1L6 2-285): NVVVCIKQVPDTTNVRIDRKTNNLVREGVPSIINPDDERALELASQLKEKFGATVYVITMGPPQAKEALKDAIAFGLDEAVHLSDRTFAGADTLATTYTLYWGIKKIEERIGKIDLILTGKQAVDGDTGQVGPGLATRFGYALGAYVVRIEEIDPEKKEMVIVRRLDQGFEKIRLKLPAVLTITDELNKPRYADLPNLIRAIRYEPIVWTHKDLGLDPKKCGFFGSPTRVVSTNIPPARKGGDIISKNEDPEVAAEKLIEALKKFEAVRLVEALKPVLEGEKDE
T2 sequence (Q9X1L7 1-338): as the sequence (Q9X1L7 entry or part of it) above
T2 sequence (Q9X1L8 1-438): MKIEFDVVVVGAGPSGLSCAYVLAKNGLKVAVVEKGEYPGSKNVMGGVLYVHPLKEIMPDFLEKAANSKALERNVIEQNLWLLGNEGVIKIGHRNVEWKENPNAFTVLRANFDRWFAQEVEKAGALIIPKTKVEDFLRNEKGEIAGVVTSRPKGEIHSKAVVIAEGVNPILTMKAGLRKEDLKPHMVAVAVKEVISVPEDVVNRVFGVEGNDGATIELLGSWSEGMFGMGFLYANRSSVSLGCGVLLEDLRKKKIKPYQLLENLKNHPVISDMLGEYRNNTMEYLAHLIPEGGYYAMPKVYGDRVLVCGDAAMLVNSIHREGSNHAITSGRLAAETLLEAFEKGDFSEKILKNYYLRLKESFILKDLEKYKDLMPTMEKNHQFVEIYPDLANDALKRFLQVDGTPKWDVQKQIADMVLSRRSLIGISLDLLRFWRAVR
T2 sequence (Q9X1L9 1-92 partner): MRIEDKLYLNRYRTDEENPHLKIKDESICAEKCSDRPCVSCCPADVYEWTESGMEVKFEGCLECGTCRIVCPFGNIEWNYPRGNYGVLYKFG

[3] = target: Thermotoga maritima Fix/EtfABCX supermonomer (ABCX heterotetramer protomer) (Thermotoga maritima); assay: SEC-MALS + other: SEC-SAXS; anaerobic SEC-MALS-SAXS of purified EtfABCX; KW-803 column, room temperature, 0.65 mL/min; 20 mM Tris-HCl pH 8.0, 200 mM NaCl with 0.01% DDM (also buffer only); no additive, NADH, NAD+ or DT in the running buffer
[4] = target: Thermotoga maritima Fix/EtfABCX supermonomer (ABCX heterotetramer protomer) (Thermotoga maritima); assay: as above; remark: listed apart in the source
EtfAB [5] = target: T1, EtfAB; assay: FAD released by […] SDS and quantified by absorbance; format: binding; conditions: co-purified; BF-FAD site in EtfA and ET-FAD site in EtfB
EtfABCX [6] = target: T2, EtfABCX; assay: FAD released by […] SDS and quantified by absorbance; format: binding; conditions: co-purified; BF-FAD in EtfA, ET-FAD in EtfB, QR-FAD in EtfC

NC(=O)C1=CN([C@@H]2O[C@H](COP(=O)(O)OP(=O)(O)OC[C@H]3O[C@@H](n4cnc5c(N)ncnc54)[C@H](O)[C@@H]3O)[C@@H](O)[C@H]2O)C=CC1 [NADH]
anaerobic SEC-SAXS with in-line UV-visible spectroscopy (flavin reduction, compa) (EtfAB [1]; excess NADH in running buffer): EtfAB in the presence of excess NADH indicated that its FAD cofactors were fully reduced

NC(=O)c1ccc[n+]([C@@H]2O[C@H](COP(=O)(O)OP(=O)(O)OC[C@H]3O[C@@H](n4cnc5c(N)ncnc54)[C@H](O)[C@@H]3O)[C@@H](O)[C@H]2O)c1 [NAD^+]
anaerobic SEC-SAXS with in-line UV-visible spectroscopy (flavin reduction, compa) (EtfAB [1]; excess NAD+ in running buffer, as-purified enzyme): EtfAB in the presence of NAD^+ led the enzyme into a more extended state | anaerobic SEC-MALS-SAXS with in-line UV-visible spectroscopy (EtfABCX [2]): likely due to the formation of an EtfABCX-NAD^+ complex

Thermotoga maritima Fix/EtfABCX supermonomer (ABCX heterotetramer protomer) (complex)
stoichiometry N [3]: 4 | stoichiometry N [4]: 2

Cc1cc2nc3c(=O)[nH]c(=O)nc-3n(C[C@H](O)[C@H](O)[C@H](O)COP(=O)(O)OP(=O)(O)OC[C@H]3O[C@@H](n4cnc5c(N)ncnc54)[C@H](O)[C@@H]3O)c2cc1C [FAD]
FAD released by 1% SDS and quantified by absorbance (EtfAB [5]): approximately three and two molecules of FAD per EtfABCX supermonomer and EtfAB heterodimer, respectively | FAD released by 1% SDS and quantified by absorbance (EtfABCX [6]): approximately three and two molecules of FAD per EtfABCX supermonomer and EtfAB heterodimer, respectively
